Measured values: PMC9276671, “A first-in-human Phase I dose-escalation trial of the novel therapeutic peptide, ALM201, demonstrates a favourable safety profile in unselected patients with ovarian cancer and other advanced solid tumours” (British Journal of Cancer, 2022)
No end group written: not given here.

Experiment: Plasma pharmacokinetics of ALM201 in Phase I patients (validated LC-MS/MS, Phoenix WinNonlin)
Conditions: human, plasma, sc; for level at 3 h: day 1 cycle 1, 3 h after dosing; for Tmax: median; for Tmax / AUC(0-t) / Cmax: plasma LC-MS/MS; for AUC(0-t): AUC0-t; for AUC(0-t) / Cmax: Gmean (CV); for level at 0.25 h: day 1 cycle 1, 0.25 h after dosing; for level at 0.75 h: day 1 cycle 1, 0.75 h after dosing; for level at 4 h: day 1 cycle 1, 4 h after dosing
[1] = 40 mg, 40 mg SC, day 1 cycle 1, n = 1
[2] = 40 mg, 40 mg SC, day 3 cycle 1, n = 1
[3] = 40 mg, 40 mg SC, day 18 cycle 1, n = 1
[4] = 40 mg, 40 mg SC, day 18 cycle 2, n = 1
[5] = 40 mg, Plasma concentration, geometric mean (CV%), 40 mg SC, n = 1, LC-MS/MS
[6] = 80 mg, 80 mg SC, day 1 cycle 1, n = 3
[7] = 80 mg, 80 mg SC, day 3 cycle 1, n = 3
[8] = 80 mg, 80 mg SC, day 18 cycle 1, n = 2, CV not calculated
[9] = 80 mg, 80 mg SC, day 18 cycle 2, n = 1
[10] = 80 mg, Plasma concentration, geometric mean (CV%), 80 mg SC, n = 3, LC-MS/MS

Sequence IRQQPRDPPTETLELEVSPDPAS [ALM201] has a level at 1.5 h (20 mg, Plasma concentration, geometric mean (CV%), 20 mg SC, day 1 cycle 1, 1.5 h after dosing, n = 1, LC-MS/MS) of 542 ng/mL, a level at 2 h (20 mg, Plasma concentration, geometric mean (CV%), 20 mg SC, day 1 cycle 1, 2 h after dosing, n = 1, LC-MS/MS) of 417 ng/mL and a level at 3 h (20 mg, Plasma concentration, geometric mean (CV%), 20 mg SC, n = 1, LC-MS/MS) of 224 ng/mL. It also gave a level at 0.5 h (20 mg, Plasma concentration, geometric mean (CV%), 20 mg SC, day 3 cycle 1, 0.5 h after dosing, n = 1, LC-MS/MS) of 210 ng/mL, a level at 1 h (20 mg, Plasma concentration, geometric mean (CV%), 20 mg SC, day 3 cycle 1, 1 h after dosing, n = 1, LC-MS/MS) of 614 ng/mL and a level at 1.5 h (20 mg, Plasma concentration, geometric mean (CV%), 20 mg SC, day 3 cycle 1, 1.5 h after dosing, n = 1, LC-MS/MS) of 532 ng/mL. For the same sequence, the level at 2 h (20 mg, Plasma concentration, geometric mean (CV%), 20 mg SC, day 3 cycle 1, 2 h after dosing, n = 1, LC-MS/MS) was 377 ng/mL, the level at 3.5 h (20 mg, Plasma concentration, geometric mean (CV%), 20 mg SC, day 3 cycle 1, 3.5 h after dosing, n = 1, LC-MS/MS) was 134 ng/mL and the level at 0.5 h (20 mg, Plasma concentration, geometric mean (CV%), 20 mg SC, day 18 cycle 1, 0.5 h after dosing, n = 1, LC-MS/MS) was 194 ng/mL. It also gave a level at 1 h (20 mg, Plasma concentration, geometric mean (CV%), 20 mg SC, day 18 cycle 1, 1 h after dosing, n = 1, LC-MS/MS) of 319 ng/mL, a level at 1.5 h (20 mg, Plasma concentration, geometric mean (CV%), 20 mg SC, day 18 cycle 1, 1.5 h after dosing, n = 1, LC-MS/MS) of 314 ng/mL and a level at 2 h (20 mg, Plasma concentration, geometric mean (CV%), 20 mg SC, day 18 cycle 1, 2 h after dosing, n = 1, LC-MS/MS) of 224 ng/mL. It also gave a level at 3.5 h (20 mg, Plasma concentration, geometric mean (CV%), 20 mg SC, day 18 cycle 1, 3.5 h after dosing, n = 1, LC-MS/MS) of 113 ng/mL, a level at 0.5 h (20 mg, Plasma concentration, geometric mean (CV%), 20 mg SC, day 18 cycle 2, 0.5 h after dosing, n = 1, LC-MS/MS) of 279 ng/mL and a level at 1 h (20 mg, Plasma concentration, geometric mean (CV%), 20 mg SC, day 18 cycle 2, 1 h after dosing, n = 1, LC-MS/MS) of 394 ng/mL. It also gave a level at 1.5 h (20 mg, Plasma concentration, geometric mean (CV%), 20 mg SC, day 18 cycle 2, 1.5 h after dosing, n = 1, LC-MS/MS) of 352 ng/mL, a level at 2 h (20 mg, Plasma concentration, geometric mean (CV%), 20 mg SC, day 18 cycle 2, 2 h after dosing, n = 1, LC-MS/MS) of 386 ng/mL and a level at 3.5 h (20 mg, Plasma concentration, geometric mean (CV%), 20 mg SC, day 18 cycle 2, 3.5 h after dosing, n = 1, LC-MS/MS) of 162 ng/mL. It also gave a Tmax (20 mg, 20 mg SC, day 1 cycle 1, n = 1) of 1.5 h, a Tmax (20 mg, 20 mg SC, day 3 cycle 1, n = 1) of 1 h and a Tmax (20 mg, 20 mg SC, day 18 cycle 1, n = 1) of 1.02 h. For the same sequence, the AUC(0-t) [1] was 1920 ng·h/mL, the AUC(0-t) [2] was 898 ng·h/mL and the AUC(0-t) [3] was 1840 ng·h/mL. It also gave an AUC(0-t) [4] of 1950 ng·h/mL, a Cmax [1] of 592 ng/mL and a Cmax [2] of 759 ng/mL. It also gave a Cmax [3] of 405 ng/mL, a level at 0.25 h [5] of 316 ng/mL and a level at 0.75 h [5] of 556 ng/mL. The level at 1.5 h (40 mg, Plasma concentration, geometric mean (CV%), 40 mg SC, day 1 cycle 1, 1.5 h after dosing, n = 1, LC-MS/MS) was 592 ng/mL, the level at 2 h (40 mg, Plasma concentration, geometric mean (CV%), 40 mg SC, day 1 cycle 1, 2 h after dosing, n = 1, LC-MS/MS) was 540 ng/mL and the level at 3 h [5] was 368 ng/mL. For the same sequence, the level at 4 h [5] was 223 ng/mL, the level at 5 h (40 mg, Plasma concentration, geometric mean (CV%), 40 mg SC, day 1 cycle 1, 5 h after dosing, n = 1, LC-MS/MS) was 158 ng/mL and the level at 0.5 h (40 mg, Plasma concentration, geometric mean (CV%), 40 mg SC, day 3 cycle 1, 0.5 h after dosing, n = 1, LC-MS/MS) was 264 ng/mL. It also gave a level at 1 h (40 mg, Plasma concentration, geometric mean (CV%), 40 mg SC, day 3 cycle 1, 1 h after dosing, n = 1, LC-MS/MS) of 444 ng/mL, a level at 1.5 h (40 mg, Plasma concentration, geometric mean (CV%), 40 mg SC, day 3 cycle 1, 1.5 h after dosing, n = 1, LC-MS/MS) of 759 ng/mL and a level at 2 h (40 mg, Plasma concentration, geometric mean (CV%), 40 mg SC, day 3 cycle 1, 2 h after dosing, n = 1, LC-MS/MS) of 656 ng/mL. For the same sequence, the level at 0.5 h (40 mg, Plasma concentration, geometric mean (CV%), 40 mg SC, day 18 cycle 1, 0.5 h after dosing, n = 1, LC-MS/MS) was 348 ng/mL, the level at 1 h (40 mg, Plasma concentration, geometric mean (CV%), 40 mg SC, day 18 cycle 1, 1 h after dosing, n = 1, LC-MS/MS) was 405 ng/mL and the level at 1.5 h (40 mg, Plasma concentration, geometric mean (CV%), 40 mg SC, day 18 cycle 1, 1.5 h after dosing, n = 1, LC-MS/MS) was 397 ng/mL. It also gave a level at 2 h (40 mg, Plasma concentration, geometric mean (CV%), 40 mg SC, day 18 cycle 1, 2 h after dosing, n = 1, LC-MS/MS) of 368 ng/mL, a level at 3.5 h (40 mg, Plasma concentration, geometric mean (CV%), 40 mg SC, day 18 cycle 1, 3.5 h after dosing, n = 1, LC-MS/MS) of 377 ng/mL and a level at 5 h (40 mg, Plasma concentration, geometric mean (CV%), 40 mg SC, day 18 cycle 1, 5 h after dosing, n = 1, LC-MS/MS) of 113 ng/mL. It also gave a level at 0.5 h (40 mg, Plasma concentration, geometric mean (CV%), 40 mg SC, day 18 cycle 2, 0.5 h after dosing, n = 1, LC-MS/MS) of 384 ng/mL, a level at 1 h (40 mg, Plasma concentration, geometric mean (CV%), 40 mg SC, day 18 cycle 2, 1 h after dosing, n = 1, LC-MS/MS) of 583 ng/mL and a level at 1.5 h (40 mg, Plasma concentration, geometric mean (CV%), 40 mg SC, day 18 cycle 2, 1.5 h after dosing, n = 1, LC-MS/MS) of 565 ng/mL. For the same sequence, the level at 2 h (40 mg, Plasma concentration, geometric mean (CV%), 40 mg SC, day 18 cycle 2, 2 h after dosing, n = 1, LC-MS/MS) was 571 ng/mL, the level at 3.5 h (40 mg, Plasma concentration, geometric mean (CV%), 40 mg SC, day 18 cycle 2, 3.5 h after dosing, n = 1, LC-MS/MS) was 347 ng/mL and the Tmax [1] was 1.63 h. It also gave a Tmax [2] of 1.5 h, a Tmax [3] of 1 h and a Tmax [4] of 1.03 h. The AUC(0-t) [6] was 3380 ng·h/mL, the AUC(0-t) [7] was 2970 ng·h/mL and the AUC(0-t) [8] was 3500 ng·h/mL. The AUC(0-t) [9] was 3230 ng·h/mL, the Cmax [6] was 835 ng/mL and the Cmax [7] was 861 ng/mL. The Cmax [8] was 1090 ng/mL, the Cmax [9] was 849 ng/mL and the level at 0.25 h [10] was 292 ng/mL. For the same sequence, the level at 0.75 h [10] was 700 ng/mL, the level at 1.5 h (80 mg, Plasma concentration, geometric mean (CV%), 80 mg SC, day 1 cycle 1, 1.5 h after dosing, n = 3, LC-MS/MS) was 800 ng/mL and the level at 2 h (80 mg, Plasma concentration, geometric mean (CV%), 80 mg SC, day 1 cycle 1, 2 h after dosing, n = 3, LC-MS/MS) was 727 ng/mL. For the same sequence, the level at 3 h [10] was 689 ng/mL, the level at 4 h [10] was 556 ng/mL and the level at 5 h (80 mg, Plasma concentration, geometric mean (CV%), 80 mg SC, day 1 cycle 1, 5 h after dosing, n = 3, LC-MS/MS) was 359 ng/mL. The level at 6 h (80 mg, Plasma concentration, geometric mean (CV%), 80 mg SC, day 1 cycle 1, 6 h after dosing, n = 3, LC-MS/MS) was 248 ng/mL, the level at 0.5 h (80 mg, Plasma concentration, geometric mean (CV%), 80 mg SC, day 3 cycle 1, 0.5 h after dosing, n = 3, LC-MS/MS) was 578 ng/mL and the level at 1 h (80 mg, Plasma concentration, geometric mean (CV%), 80 mg SC, day 3 cycle 1, 1 h after dosing, n = 3, LC-MS/MS) was 684 ng/mL. It also gave a level at 1.5 h (80 mg, Plasma concentration, geometric mean (CV%), 80 mg SC, day 3 cycle 1, 1.5 h after dosing, n = 3, LC-MS/MS) of 827 ng/mL, a level at 2 h (80 mg, Plasma concentration, geometric mean (CV%), 80 mg SC, day 3 cycle 1, 2 h after dosing, n = 3, LC-MS/MS) of 826 ng/mL and a level at 3.5 h (80 mg, Plasma concentration, geometric mean (CV%), 80 mg SC, day 3 cycle 1, 3.5 h after dosing, n = 3, LC-MS/MS) of 524 ng/mL. The level at 5 h (80 mg, Plasma concentration, geometric mean (CV%), 80 mg SC, day 3 cycle 1, 5 h after dosing, n = 3, LC-MS/MS) was 325 ng/mL, the level at 0.5 h (80 mg, Plasma concentration, geometric mean (CV%), 80 mg SC, day 18 cycle 1, 0.5 h after dosing, n = 2, LC-MS/MS) was 769 ng/mL and the level at 1 h (80 mg, Plasma concentration, geometric mean (CV%), 80 mg SC, day 18 cycle 1, 1 h after dosing, n = 2, LC-MS/MS) was 946 ng/mL. It also gave a level at 1.5 h (80 mg, Plasma concentration, geometric mean (CV%), 80 mg SC, day 18 cycle 1, 1.5 h after dosing, n = 2, LC-MS/MS) of 884 ng/mL, a level at 2 h (80 mg, Plasma concentration, geometric mean (CV%), 80 mg SC, day 18 cycle 1, 2 h after dosing, n = 2, LC-MS/MS) of 1060 ng/mL and a level at 3.5 h (80 mg, Plasma concentration, geometric mean (CV%), 80 mg SC, day 18 cycle 1, 3.5 h after dosing, n = 2, LC-MS/MS) of 545 ng/mL. The level at 5 h (80 mg, Plasma concentration, geometric mean (CV%), 80 mg SC, day 18 cycle 1, 5 h after dosing, n = 2, LC-MS/MS) was 407 ng/mL, the level at 0.5 h (80 mg, Plasma concentration, geometric mean (CV%), 80 mg SC, day 18 cycle 2, 0.5 h after dosing, n = 1, LC-MS/MS) was 394 ng/mL and the level at 1 h (80 mg, Plasma concentration, geometric mean (CV%), 80 mg SC, day 18 cycle 2, 1 h after dosing, n = 1, LC-MS/MS) was 808 ng/mL. For the same sequence, the level at 1.5 h (80 mg, Plasma concentration, geometric mean (CV%), 80 mg SC, day 18 cycle 2, 1.5 h after dosing, n = 1, LC-MS/MS) was 659 ng/mL, the level at 2 h (80 mg, Plasma concentration, geometric mean (CV%), 80 mg SC, day 18 cycle 2, 2 h after dosing, n = 1, LC-MS/MS) was 639 ng/mL and the level at 3.5 h (80 mg, Plasma concentration, geometric mean (CV%), 80 mg SC, day 18 cycle 2, 3.5 h after dosing, n = 1, LC-MS/MS) was 849 ng/mL. It also gave a Tmax [6] of 1.53 h and a Tmax (80 mg, 80 mg SC, day 18 cycle 1, n = 2) of 1.23 h.
